Data from patent US12528826B2, “[1,4]oxazepino[2,3-c]quinolinone derivatives as BCL6 inhibitors” (Cancer Research Technology Limited, priority 2019, dated 2026).

Target: T1, Trx-6×His-BCL6 (human BCL6 BTB domain covering amino-acid sequence 5-129) (Homo sapiens, UniProt P41182)
T1 construct: made in house
Assay: HTRF assay (BCL6 / BCOR peptide)
Assay type: binding
Conditions: 1 nM Trx-6×His-BCL6, 300 nM BCOR-AF633 peptide, 2 hours incubation at room temperature; for IC50: read-out: HTRF avg pIC50 (converted)
Method: After 2 hours incubation at room temperature the plate was read on a Pherastar FSX (BMG Labtech) plate reader equipped with 337 nm laser excitation filter, a first emission filter at 620 nm and a second emission filter at 665 nm. The % inhibition at each concentration was calculated by normalising FRET ratio to the appropriate high (DMSO with all reagents) and low (DMSO without BCL6) controls.

| IC50 [nM] | HTRF avg pIC50 | SMILES |
| --- | --- | --- |
| 3.89 | – | COCC(C)CNc1ncc(Cl)c(Nc2ccc3c(c2)c2c(c(=O)n3C)OCC(F)(F)[C@H](C3CC3)N2)n1 (mixture of isomers) [Example 11m, (S)-10-((5-chloro-2-(((R)-3-methoxy-2-methylpropyl)amino)pyrimidin-4-yl)amino)-2-cyclopropyl-3,3-difluoro-7-methyl-1,2,3,4-tetrahydro-[1,4]oxazepino[2,3-c]quinolin-6(7H)-one:(S)-10-((5-chloro-2-(((S)-3-methoxy-2-methylpropyl)amino)pyrimidin-4-yl)amino)-2-cyclopropyl-3,3-difluoro-7-methyl-1,2,3,4-tetrahydro-[1,4]oxazepino[2,3-c]quinolin-6(7H)-one (1:1)] |
| 2.29 | – | Cn1c(=O)c2c(c3cc(Nc4nc(N5CCC(F)(F)C(CC(N)=O)C5)ncc4Cl)ccc31)N[C@@H](C1CC1)C(F)(F)CO2 (mixture of isomers) [Example 9g] |
| 6.31 | – | Cn1c(=O)c2c(c3cc(Nc4nc(N5CCC(C)(O)C5)ncc4Cl)ccc31)N[C@@H](C1CC1)C(F)(F)CO2 (mixture of isomers) [Example 12a, (S)-10-((5-chloro-2-((R)-3-hydroxy-3-methylpyrrolidin-1-yl)pyrimidin-4-yl)amino)-2-cyclopropyl-3,3-difluoro-7-methyl-1,2,3,4-tetrahydro-[1,4]oxazepino[2,3-c]quinolin-6(7H)-one:(S)-10-((5-chloro-2-((S)-3-hydroxy-3-methylpyrrolidin-1-yl)pyrimidin-4-yl)amino)-2-cyclopropyl-3,3-difluoro-7-methyl-1,2,3,4-tetrahydro-[1,4]oxazepino[2,3-c]quinolin-6(7H)-one (1:1)] |
| 4.9 | – | Cn1c(=O)c2c(c3cc(Nc4nc(N5CC6CC(C5)O6)ncc4Cl)ccc31)N[C@@H](C1CC1)C(F)(F)CO2 [Example 12d, (2S)-10-((2-(6-oxa-3-azabicyclo[3.1.1]heptan-3-yl)-5-chloropyrimidin-4-yl)amino)-2-cyclopropyl-3,3-difluoro-7-methyl-1,2,3,4-tetrahydro-[1,4]oxazepino[2,3-c]quinolin-6(7H)-one] |
| 14.1 | – | Cn1c(=O)c2c(c3cc(Nc4ncncc4Cl)ccc31)N[C@@H](C1CC1)C(F)(F)CO2 [Example 6a, (S)-10-((5-chloropyrimidin-4-yl)amino)-2-cyclopropyl-3,3-difluoro-7-methyl-1,2,3,4-tetrahydro-[1,4]oxazepino[2,3-c]quinolin-6(7H)-one] |
| 1.29 | – | Cn1c(=O)c2c(c3cc(Nc4nc(N5CCN6C(=O)CCC6C5)ncc4Cl)ccc31)N[C@@H](C1CC1)C(F)(F)CO2 (mixture of isomers) [Example 12i, (S)-10-((5-chloro-2-((R)-6-oxohexahydropyrrolo[1,2-a]pyrazin-2(1H)-yl)pyrimidin-4-yl)amino)-2-cyclopropyl-3,3-difluoro-7-methyl-1,2,3,4-tetrahydro-[1,4]oxazepino[2,3-c]quinolin-6(7H)-one:(S)-10-((5-chloro-2-((S)-6-oxohexahydropyrrolo[1,2-a]pyrazin-2(1H)-yl)pyrimidin-4-yl)amino)-2-cyclopropyl-3,3-difluoro-7-methyl-1,2,3,4-tetrahydro-[1,4]oxazepino[2,3-c]quinolin-6(7H)-one (1:1)] |

The next lines start with the molecule.

| SMILES | IC50 [nM] | HTRF avg pIC50 |
| --- | --- | --- |
| C[C@H]1CCN(c2ncc(Cl)c(Nc3ccc4c(c3)c3c(c(=O)n4C)OCC(F)(F)[C@H](C4CC4)N3)n2)C1 [Example 12x01, (S)-10-((5-chloro-2-((S)-3-methylpyrrolidin-1-yl)pyrimidin-4-yl)amino)-2-cyclopropyl-3,3-difluoro-7-methyl-1,2,3,4-tetrahydro-[1,4]oxazepino[2,3-c]quinolin-6(7H)-one] | 26.9 | – |
| Cn1c(=O)c2c(c3cc(Nc4nc(N5CCNC(C(F)F)C5)ncc4Cl)ccc31)N[C@@H](C1CC1)C(F)(F)CO2 (stereo partly drawn) [Example 12x26, (2S)-10-((5-chloro-2-(3-(difluoromethyl)piperazin-1-yl)pyrimidin-4-yl)amino)-2-cyclopropyl-3,3-difluoro-7-methyl-1,2,3,4-tetrahydro-[1,4]oxazepino[2,3-c]quinolin-6(7H)-one] | 1.91 | – |
| Cn1c(=O)c2c(c3cc(Nc4ccnc(Cl)c4Cl)ccc31)N[C@@H](C1CC1)C(F)(F)CO2 [Example 4c, (S)-2-cyclopropyl-10-((2,3-dichloropyridin-4-yl)amino)-3,3-difluoro-7-methyl-1,2,3,4-tetrahydro-[1,4]oxazepino[2,3-c]quinolin-6(7H)-one] | – | 7.86 |
| CC1CCN(c2ncc(Cl)c(Nc3ccc4c(c3)c3c(c(=O)n4C)OCC(F)(F)[C@H](C4CC4)N3)n2)CC1C (mixture of isomers) [Example 12x07, (2S)-10-((5-chloro-2-(3,4-dimethylpiperidin-1-yl)pyrimidin-4-yl)amino)-2-cyclopropyl-3,3-difluoro-7-methyl-1,2,3,4-tetrahydro-[1,4]oxazepino[2,3-c]quinolin-6(7H)-one] | 46.8 | – |
| Cn1c(=O)c2c(c3cc(Nc4nc(N5CCC(C#N)CC5)ncc4Cl)ccc31)N[C@@H](C1CC1)C(F)(F)CO2 [Example 12x38, (S)-1-(5-chloro-4-((2-cyclopropyl-3,3-difluoro-7-methyl-6-oxo-1,2,3,4,6,7-hexahydro-[1,4]oxazepino[2,3-c]quinolin-10-yl)amino)pyrimidin-2-yl)piperidine-4-carbonitrile] | 3.72 | – |
| Cn1c(=O)c2c(c3cc(Nc4ccnc(Cl)c4F)ccc31)N[C@@H](C1CC1)C(F)(F)CO2 [Example 4d, (S)-10-((2-chloro-3-fluoropyridin-4-yl)amino)-2-cyclopropyl-3,3-difluoro-7-methyl-1,2,3,4-tetrahydro-[1,4]oxazepino[2,3-c]quinolin-6(7H)-one] | – | 7.78 |
| Cn1c(=O)c2c(c3cc(Nc4nc(N5CC[C@@H]5CO)ncc4Cl)ccc31)N[C@@H](C1CC1)C(F)(F)CO2 [Example 12x33b, (S)-10-((5-chloro-2-((R)-2-(hydroxymethyl)azetidin-1-yl)pyrimidin-4-yl)amino)-2-cyclopropyl-3,3-difluoro-7-methyl-1,2,3,4-tetrahydro-[1,4]oxazepino[2,3-c]quinolin-6(7H)-one] | 7.76 | – |
| Cn1c(=O)c2c(c3cc(Nc4nc(N5CCC(F)CC5)ncc4Cl)ccc31)N[C@@H](C1CC1)C(F)(F)CO2 [Example 12x42, (S)-10-((5-chloro-2-(4-fluoropiperidin-1-yl)pyrimidin-4-yl)amino)-2-cyclopropyl-3,3-difluoro-7-methyl-1,2,3,4-tetrahydro-[1,4]oxazepino[2,3-c]quinolin-6(7H)-one] | 6.17 | – |
| Cn1c(=O)c2c(c3cc(Nc4nc(N5CCN(C6CC6)C(=O)C5)ncc4Cl)ccc31)N[C@@H](C1CC1)C(F)(F)CO2 [Example 1b, (S)-10-((5-chloro-2-(4-cyclopropyl-3-oxopiperazin-1-yl)pyrimidin-4-yl)amino)-2-cyclopropyl-3,3-difluoro-7-methyl-1,2,3,4-tetrahydro-[1,4]oxazepino[2,3-c]quinolin-6(7H)-one] | 1.95 | – |
| Cn1c(=O)c2c(c3cc(Nc4nc(N5CCOCC5)ncc4F)ccc31)N[C@@H](C1CC1)C(F)(F)CO2 [Example 13p06, (S)-2-cyclopropyl-3,3-difluoro-10-((5-fluoro-2-morpholinopyrimidin-4-yl)amino)-7-methyl-1,2,3,4-tetrahydro-[1,4]oxazepino[2,3-c]quinolin-6(7H)-one] | 11.7 | – |
